Assay results reported in publication PMC7023430, “4-Aminobenzoic Acid Derivatives: Converting Folate Precursor to Antimicrobial and Cytotoxic Agents” (Biomolecules, 2019).
Values after ≈ are worked out from the molar mass of the structure shown. Where two headings read alike, the source gives them in different places.

How the values were obtained:
[1] = tested on: Lichtheimia corymbifera 272; assay: Antifungal microdilution broth method, L. corymbifera; assay type: cell-based
Method in brief: (§1)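 Compounds were taken up in DMSO, then serially diluted twofold into MOPS-buffered (pH 7.0) RPMI-1640 containing L-glutamine and 2% glucose. Fungi were tested by microdilution following modified EUCAST guidance, and MICs were assessed by eye.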

[2] = tested on: E. coli, Listeria monocytogenes and Salmonella enteritidis; set-up: method as in PMID 7730199; settings: strains distinct from this study; cited from earlier work
[3] = tested on: Escherichia coli ATCC 25922, CCM 3954; assay: Antibacterial microdilution broth method, E. coli; assay type: cell-based; settings: Escherichia coli
Candida tropicalis 156 = assay: Antifungal microdilution broth method, C. tropicalis; assay type: cell-based
Method in brief: as §1

Trichosporon asahii 1188 = assay: Antifungal microdilution broth method, T. asahii; assay type: cell-based
Method in brief: as §1

[4] = tested on: four Gram-positive and four Gram-negative strains; assay: Antibacterial activity; assay type: cell-based; settings: statement over the bacterial panel; time not stated; read-out: MIC, antibacterial activity
Candida glabrata 20/I = assay: Antifungal microdilution broth method, C. glabrata; assay type: cell-based; settings: Nakaseomyces glabratus
Method in brief: as §1

[5] = tested on: Aspergillus fumigatus 231; assay: Antifungal microdilution broth method, A. fumigatus; assay type: cell-based
Method in brief: as §1

[6] = tested on: Mycobacterium kansasii 235/80; assay: Antimycobacterial micromethod in Šula's medium, M. kansasii 235/80; assay type: cell-based
[7] = tested on: Trichophyton interdigitale 445; assay: Antifungal microdilution broth method, T. interdigitale; assay type: cell-based
Method in brief: as §1

[8] = tested on: Enterococcus faecalis ATCC 29212, CCM 4224; assay: Antibacterial microdilution broth method, E. faecalis; assay type: cell-based; settings: Enterococcus faecalis
[9] = tested on: ESBL-positive Klebsiella pneumoniae J 14368/08
[10] = tested on: M. kansasii 6509/96 (clinical isolate); assay: Antimycobacterial micromethod in Šula's medium, M. kansasii 6509/96; assay type: cell-based; settings: Mycobacterium kansasii
[11] = tested on: Mycobacterium avium 330/88; assay: Antimycobacterial micromethod in Šula's medium, M. avium; assay type: cell-based
[12] = tested on: Pseudomonas aeruginosa ATCC 27853, CCM 3955; assay: Antibacterial microdilution broth method, P. aeruginosa; assay type: cell-based; settings: Pseudomonas aeruginosa, P. aeruginosa
eight fungal strains = assay: Antifungal activity; assay type: cell-based; settings: statement over the fungal panel; time not stated
Experimental: The antifungal properties were evaluated against five yeast strains, namely: Candida albicans ATCC 44859, Candida tropicalis 156, Candida krusei […], Candida glabrata 20/I, Trichosporon […] 1188 and three strains of filamentous fungi: Aspergillus fumigatus 231, Lichtheimia corymbifera 272, and Trichophyton interdigitale 445. A microdilution broth method was performed according to EUCAST II, III instructions with slight modifications. Briefly, tested compounds were dissolved in DMSO and diluted in a twofold manner with RPMI-1640 medium with L-glutamine, supplemented with 2% glucose (w/v) and buffered to pH 7.0 with 3 morpholinopropane-1-sulfonic acid (all components were purchased from Sigma-Aldrich, USA). […] Positive controls consisted of test microbe solely, while negative controls consisted of medium and DMSO. Internal quality control was included too. Visual inspection was used for MIC endpoints evaluation. The experiments were conducted in duplicates. For the results to be valid, the difference in MIC determined from two parallel measurements must not be greater than one step on the dilution scale. PABA and triazole antimycotic drug fluconazole were involved as the reference compounds.

phytopathogenic fungi = tested on: phytopathogenic fungi; set-up: method as in PMID 29283262; settings: read-out: IC50 of PABA, phytopathogenic fungi; cited from earlier work
[13] = tested on: Staphylococcus epidermidis H 6966/08; assay: Antibacterial microdilution broth method, S. epidermidis; assay type: cell-based; settings: Staphylococcus epidermidis, H6966/08, S. epidermidis
[14] = tested on: methicillin-resistant Staphylococcus aureus ATCC 43300, CCM 4750 (MRSA); assay: Antibacterial microdilution broth method, MRSA; assay type: cell-based; settings: Staphylococcus aureus
[15] = tested on: Mycobacterium tuberculosis H37Rv (331/88); assay: Antimycobacterial micromethod in Šula's medium, M. tuberculosis; assay type: cell-based
[16] = tested on: Klebsiella pneumoniae D 11750/08
Candida krusei E28 = assay: Antifungal microdilution broth method, C. krusei; assay type: cell-based; settings: Pichia kudriavzevii
Method in brief: as §1

[17] = tested on: Candida albicans ATCC 44859; assay: Antifungal microdilution broth method, C. albicans; assay type: cell-based
Method in brief: as §1

[18] = tested on: Staphylococcus aureus ATCC 29213, CCM 4223; assay: Antibacterial microdilution broth method, S. aureus; assay type: cell-based

Question: Which MIC ([1]; 24 h, read-out: MIC LC 24 h) does the source give for Nc1ccc(C(=O)O)cc1 [PABA 1, 4-aminobenzoic acid] here?
Answer: The MIC was over 500 µM.

Question: What about the MIC ([1]; 48 h, read-out: MIC LC 48 h) of the same compound?
Answer: The MIC was over 500 µM.

Question: And the “MIC of PABA” value [2]?
Answer: Its value is 9000 to 24000 µM.

Question: And the MIC ([3]; 24 h incubation, read-out: MIC EC 24 h)?
Answer: The MIC was over 500 µM.

Question: What about the MIC ([3]; 48 h incubation, read-out: MIC EC 48 h) of the same compound?
Answer: The MIC was over 500 µM.

Question: And the MIC (Candida tropicalis 156; 24 h, read-out: MIC CT 24 h)?
Answer: Its MIC is over 500 µM.

Question: And the MIC (Candida tropicalis 156; 48 h, read-out: MIC CT 48 h)?
Answer: Its MIC is over 500 µM.

Question: And the MIC (Trichosporon asahii 1188; 24 h, read-out: MIC TA 24 h)?
Answer: Its MIC is over 500 µM.

Question: What about the MIC (Trichosporon asahii 1188; 48 h, read-out: MIC TA 48 h) of the same compound?
Answer: Its MIC is over 500 µM.

Question: And the MIC [4]?
Answer: Its MIC is over 500 µM.

Question: What about the MIC (Candida glabrata 20/I; 24 h, read-out: MIC CG 24 h) of the same compound?
Answer: Its MIC is over 500 µM.

Question: What about the MIC (Candida glabrata 20/I; 48 h, read-out: MIC CG 48 h) of the same compound?
Answer: The MIC was over 500 µM.

Question: What about the MIC ([5]; 24 h, read-out: MIC AF 24 h) of the same compound?
Answer: The MIC was over 500 µM.

Question: What about the MIC ([5]; 48 h, read-out: MIC AF 48 h) of the same compound?
Answer: The MIC was over 500 µM.

Question: And the MIC ([6]; 235/80, 168 h, 7 days incubation at 37 °C, read-out: MIC M. kansasii 235/80 7 d)?
Answer: The MIC was 1000 µM (≈ 137 µg/mL).

Question: And the MIC ([6]; 235/80, 336 h, 14 days incubation at 37 °C, read-out: MIC M. kansasii 235/80 14 d)?
Answer: The MIC was over 1000 µM.

Question: And the MIC ([6]; 235/80, 504 h, 21 days incubation at 37 °C, read-out: MIC M. kansasii 235/80 21 d)?
Answer: Its MIC is over 1000 µM.

Question: And the MIC ([7]; 72 h, read-out: MIC TI 72 h)?
Answer: The MIC was over 500 µM.

Question: And the MIC ([7]; 120 h, read-out: MIC TI 120 h)?
Answer: The MIC was over 500 µM.

Question: What about the MIC ([8]; 24 h incubation, read-out: MIC EF 24 h) of the same compound?
Answer: The MIC was over 500 µM.

Question: And the MIC ([8]; 48 h incubation, read-out: MIC EF 48 h)?
Answer: Its MIC is over 500 µM.

Question: And the “MIC KP-E 24 h” value ([9]; 24 h)?
Answer: Its value is over 500 µM.

Question: And the “MIC KP-E 48 h” value ([9]; 48 h)?
Answer: The value was over 500 µM.

Question: And the MIC ([10]; 168 h, 7 days incubation at 37 °C, read-out: MIC M. kansasii 6509/96 7 d)?
Answer: The MIC was 1000 µM (≈ 137 µg/mL).

Question: And the MIC ([10]; 336 h, 14 days incubation at 37 °C, read-out: MIC M. kansasii 6509/96 14 d)?
Answer: Its MIC is 1000 µM (≈ 137 µg/mL).

Question: And the MIC ([10]; 504 h, 21 days incubation at 37 °C, read-out: MIC M. kansasii 6509/96 21 d)?
Answer: Its MIC is 1000 µM (≈ 137 µg/mL).

Question: What about the MIC ([11]; 330/88, 336 h, 14 days incubation at 37 °C, read-out: MIC M. avium 330/88 14 d) of the same compound?
Answer: Its MIC is over 1000 µM.

Question: What about the MIC ([11]; 330/88, 504 h, 21 days incubation at 37 °C, read-out: MIC M. avium 330/88 21 d) of the same compound?
Answer: The MIC was over 1000 µM.

Question: And the MIC ([12]; 24 h incubation, read-out: MIC PA 24 h)?
Answer: Its MIC is over 500 µM.

Question: And the MIC ([12]; 48 h incubation, read-out: MIC PA 48 h)?
Answer: The MIC was over 500 µM.

Question: What about the MIC (eight fungal strains) of the same compound?
Answer: The MIC was over 500 µM.

Question: And the IC50 (phytopathogenic fungi)?
Answer: The IC50 was 1000 to 3000 µM.

Question: What about the MIC ([13]; 24 h incubation, read-out: MIC SE 24 h) of the same compound?
Answer: The MIC was over 500 µM.

Question: What about the MIC ([13]; 48 h incubation, read-out: MIC SE 48 h) of the same compound?
Answer: The MIC was over 500 µM.

Question: What about the MIC ([14]; 24 h incubation, read-out: MIC MRSA 24 h) of the same compound?
Answer: The MIC was over 500 µM.

Question: What about the MIC ([14]; 48 h incubation, read-out: MIC MRSA 48 h) of the same compound?
Answer: The MIC was over 500 µM.

Question: What about the MIC ([15]; 336 h, 14 days incubation at 37 °C, read-out: MIC Mtb. 331/88 14 d) of the same compound?
Answer: Its MIC is over 1000 µM.

Question: And the MIC ([15]; 504 h, 21 days incubation at 37 °C, read-out: MIC Mtb. 331/88 21 d)?
Answer: Its MIC is over 1000 µM.

Question: What about the “MIC KP 24 h” value ([16]; 24 h) of the same compound?
Answer: Its value is over 500 µM.

Question: What about the “MIC KP 48 h” value ([16]; 48 h) of the same compound?
Answer: Its value is over 500 µM.

Question: What about the MIC (Candida krusei E28; 24 h, read-out: MIC CK 24 h) of the same compound?
Answer: Its MIC is over 500 µM.

Question: What about the MIC (Candida krusei E28; 48 h, read-out: MIC CK 48 h) of the same compound?
Answer: The MIC was over 500 µM.

Question: What about the MIC ([17]; ATCC44859, 24 h, read-out: MIC CA 24 h) of the same compound?
Answer: The MIC was over 500 µM.

Question: What about the MIC ([17]; ATCC44859, 48 h, read-out: MIC CA 48 h) of the same compound?
Answer: The MIC was over 500 µM.

Question: And the MIC ([18]; 24 h incubation, read-out: MIC SA 24 h)?
Answer: Its MIC is over 500 µM.

Question: What about the MIC ([18]; 48 h incubation, read-out: MIC SA 48 h) of the same compound?
Answer: Its MIC is over 500 µM.
